# Test system: Panel NCI-60 (60 carcinoma cell lines)
# Assay: Growth inhibitory activity against human cancer cell line in the NCI's anticancer drug screening program
# Assay type: functional
row,Compound,GI50
1,COC(=O)CC(O)(CCC(C)(C)O)C(=O)OC1C(OC)=CC23CCCN2CCc2cc4c(cc2C13)OCO4 (stereo not given),10 nM
2,C[C@H]1[C@H](C)CC[C@]2(C(=O)O)CC[C@]3(C)C(=CCC4[C@@]5(C)CC[C@H](O)C(C)(C)C5CC[C@]43C)[C@H]12 (stereo not given in full),10 nM
3,C[C@]12CC[C@H]3[C@@H](CC[C@@]4(O)C[C@@H](O)CC[C@]34C=O)[C@]1(O)CC[C@@H]2C1=CC(=O)OC1,94 nM
4,CC(=O)OC(C)(C)/C=C/C(=O)C(C)(O)C1C(O)CC2(C)C3CC=C4C(C[C@@H](O)C(=O)C4(C)C)C3(C)C(=O)CC12C (stereo not given in full) [AMARIN],10 nM
5,O=c1cc(-c2ccc(O)cc2)oc2cc(O[C@@H]3O[C@H](CO)[C@@H](O)[C@H](O)[C@H]3O)cc(O)c12 [APIGETRIN],76 nM
6,COc1cccc2c1cc([N+](=O)[O-])c1c(C(=O)O)cc3c(c12)OCO3 [ARISTOLOCHIC ACID],883 nM
7,CC[C@@]1(O)C(=O)OCc2c1cc1n(c2=O)Cc2cc3ccccc3nc2-1 [CAMPTOTHECIN],10 nM
8,COc1ccc2c(c[n+](C)c3c4cc5c(cc4ccc23)OCO5)c1OC [CHELERYTHRINE CHLORIDE],188 nM
9,CN1Cc2c(ccc3c2OCO3)C2C(O)Cc3cc4c(cc3C21)OCO4 (stereo not drawn) [CHELIDONINE (+)],433 nM
10,COc1cc2c(c(OC)c1OC)-c1ccc(OC)c(=O)cc1[C@@H](NC(C)=O)CC2 [COLCHICINE],1.7 nM
11,c1c2c(cc3c1OCO3)-c1cc3ccc4c(c3c[n+]1CC2)OCO4 [COPTISINE],260 nM
12,COc1c2cc3c(c1OC)CCN(C)[C@@H]3Cc1ccc(cc1)Oc1cc3c(c(OC)c1OC)CCN(C)[C@@H]3Cc1ccc(cc1)O2 [CYCLEANINE],17 nM
13,CO[C@H]1C[C@H](O[C@H]2CC[C@]3(C=O)[C@H]4CC[C@]5(C)[C@@H](C6=CC(=O)OC6)CC[C@]5(O)[C@@H]4CC[C@]3(O)C2)O[C@H](C)[C@H]1O [CYMARIN],39 nM
14,C=C(CC[C@@H](C(=O)O)[C@H]1CC[C@@]2(C)C3=C(CC[C@]12C)[C@@]1(C)CC[C@H](O)C(C)(C)[C@@H]1CC3)C(C)C [EBURICOIC ACID],10000 nM
15,CC(C)(O)/C=C/C(=O)[C@](C)(O)[C@@H]1C2CC(=O)[C@@]3(C)[C@@H]4C[C@H](O)C(=O)C(C)(C)C4=CC[C@H]3[C@]2(C)C[C@H]1O (stereo not given in full) [ELATERICIN],23 nM
16,O=c1oc2c(O)c(O)cc3c(=O)oc4c(O)c(O)cc1c4c23 [ELLAGIC ACID],10 nM
17,Cc1cc(O)c2c(c1)C(=O)c1cc(O)cc(O)c1C2=O [EMODIN],10000 nM
18,COc1ccc2cc1Oc1ccc(cc1)C[C@H]1c3cc(c(OC)cc3CCN1C)Oc1c(OC)c(OC)cc3c1[C@H](C2)N(C)CC3 [FANCHININ],10 nM
19,COc1ccc2cc1Oc1ccc(cc1)C[C@@H]1c3cc(c(OC)cc3CCN1C)Oc1c(OC)c(OC)cc3c1[C@H](C2)N(C)CC3 [ISOTETRANDRINE],10 nM
20,COc1ccc2c(c1O)-c1c(OC)c(OC)cc3c1C(C2)[N+](C)(C)CC3 (stereo not given) [MENISPERINE],41 nM
21,CC(C)c1oc(=O)cc2c1C(O)C1OC(=O)C3(C)C(O)C4OC4C2(C)C13 (stereo not given) [NAGILACTONE],363 nM
22,O=C1N[C@@H]2C(=C[C@H](O)[C@@H](O)[C@H]2O)c2cc3c(c(O)c21)OCO3 [NARCICLASINE],45 nM
23,COc1cc2c[n+](C)c3c4cc5c(cc4ccc3c2cc1OC)OCO5 [NITIDINE CHLORIDE],125 nM
24,COC(=O)C(O)C(O)(CCC(C)C)C(=O)OC1C(OC)=CC23CCCN2CCc2cc4c(cc2C13)OCO4 (stereo not given) [OHARRINGTONINE],10 nM
25,CCCCCCCC/C=C\CCCCCCCC(=O)O [OLEIC ACID],10000 nM
26,COC(=O)C[C@](O)(CCCC(C)(C)O)C(=O)O[C@@H]1C(OC)=C[C@]23CCCN2CCc2cc4c(cc2[C@H]13)OCO4 [OMACETAXINE MEPESUCCINATE],4.4 nM
27,C=C1C(=O)[C@]23[C@H](O)[C@H]1CC[C@H]2[C@@]12CO[C@]3(O)[C@@H](O)[C@@H]1C(C)(C)CC[C@@H]2O [ORIDONIN],453 nM
28,CC(=O)O[C@H]1C(=O)[C@@]2(C)[C@H]([C@H](OC(=O)c3ccccc3)[C@]3(O)C[C@H](OC(=O)[C@H](O)[C@@H](NC(=O)c4ccccc4)c4ccccc4)C(C)=C1C3(C)C)[C@]1(OC(C)=O)CO[C@@H]1C[C@@H]2O [PACLITAXEL],0.1 nM
29,COc1cc([C@@H]2c3cc4c(cc3[C@H](O)[C@H]3COC(=O)[C@H]23)OCO4)cc(OC)c1OC [PODOFILOX],10 nM
30,CC(C=CC=C(C)/C=C/C1=C(C)CCCC1(C)C)=CCO [RETINOL],28 nM

# From ChEMBL document CHEMBL1142701, “CHMIS-C: a comprehensive herbal medicine information system for cancer” (2005)
